Data from article PMC6264186, “Development of a Highly Sensitive and Specific Immunoassay for Determining Chrysoidine, A Banned Dye, in Soybean Milk Film” (Molecules, 2011).
≈ marks a conversion by molar mass, not a printed value.

Key:
[1] = test system: polyclonal Ab 2 (antibody to chrysoidine, from Hapten 2); assay: indirect competitive ELISA (icELISA) with polyclonal Ab 2; format: binding, New Zealand white rabbits; conditions: for Cross-reactivity / IC50: polyclonal Ab 2, coating antigen Hapten 1-OVA; for Cross-reactivity: CR = IC50(chrysoidine)/IC50(interferent) x 100
Experimental: Specificity of the optimized assay was tested by measuring the cross-reactivity using a group of structurally related dyes. Twenty-four compounds were selected for testing the cross-reactivity (CR) (Table 1). The CR was calculated as follows: CR(%) = [IC50(chrysoidine) / IC50(interferent)] × 100.

[2] = test system: polyclonal Ab 2 (antibody to chrysoidine, from Hapten 2); assay: as above; format: binding, New Zealand white rabbits; conditions: coating antigen Hapten 2-OVA 17 ng/mL, Ab 2 dilution 10000 (homologous)
[3] = test system: Ab 1 (antibody to chrysoidine, from Hapten 1); assay: indirect competitive ELISA (icELISA) with polyclonal Ab 1
Experimental: Checkerboard assays, in which antibodies were titrated against various amounts of the coating antigen, were used to measure the reactivity of antibodies and to select an appropriate antigen coating and antibody dilutions for competitive indirect assays. […] The concentrations of the antibodies and the coating antigen chosen were further optimized.
The procedure for the competitive assay was as follows. Microtiter plates were coated with hapten-OVA (100–1000 ng/mL, 100 µL/well) in carbonate-bicarbonate buffer (50 mM, pH 9.6) by overnight incubation at 4 °C. The plates were blocked with blocking solution by incubation for 3 h. Serial dilution of the analyte in methanol-PBST (1:9, v:v, 50 µL/well) were added, followed by 50 µL/well of antibody diluted (1/1,000–1/10,000) with PBST solution. After incubation for about 30–60 min, 100 µL/well of a diluted (1/10,000) goat anti-rabbit IgG-HRP was added. The mixture was incubated for 60 min, and 100 µL/well of a TMB solution was added. The reaction was stopped after an appropriate time (typically 8 min) by adding 10% (v:v) H2SO4 (50 µL), and the absorbance was read at 450 nm.

[4] = coating antigen Hapten 1-OVA 20 ng/mL, Ab 2 dilution 4000 (heterologous)
[5] = coating antigen Hapten 1-OVA 20 ng/mL, Ab 1 dilution 8000 (homologous)
[6] = coating antigen Hapten 2-OVA 20 ng/mL, Ab 1 dilution 20000 (heterologous)

Molecule | Cross-reactivity [1] [%] | IC50 ([1]; class symbol ND) [µM] | also measured
O=C1/C(=C2\Nc3ccccc3C2=O)Nc2ccccc21 [Indigo] | ≤0.01 | > 13.3 | –
O=[N+]([O-])c1ccc(N=Nc2c(O)ccc3ccccc23)cc1 [1-(4-nitrophenyl-azo)-2-naphthol] | ≤0.01 | > 13.3 | –
CCN(Cc1cccc(S(=O)(=O)O)c1)c1ccc(C(=C2C=CC(=[N+](CC)Cc3cccc(S(=O)(=O)O)c3)C=C2)c2ccc(O)cc2S(=O)(=O)[O-])cc1 [Brilliant blue-85] | ≤0.01 | > 13.3 | –
Cc1ccc([N+](=O)[O-])cc1N [Scarlet Base G] | ≤0.01 | > 13.3 | –
Cc1c(C(=O)O)c(O)cc2c1C(=O)c1c(O)c([C@@H]3O[C@H](CO)[C@@H](O)[C@H](O)[C@H]3O)c(O)c(O)c1C2=O [Carminic acid] | ≤0.01 | > 13.3 | –
O=S(=O)(O)c1ccc(/N=N/c2ccc(Nc3ccccc3)cc2)cc1 [Orange yellow] | ≤0.01 | > 13.3 | –
O=S(=O)(O)c1ccc(/N=N/c2c(O)ccc3cc(S(=O)(=O)O)ccc23)cc1 [Sunset yellow] | ≤0.01 | > 13.3 | –
Oc1ccc2ccccc2c1/N=N/c1ccccc1 [Sudan Red I] | ≤0.01 | > 13.3 | –
Carmine | ≤0.01 | > 13.3 | –
COc1cc(S(=O)(=O)O)c(C)cc1/N=N/c1c(O)ccc2cc(S(=O)(=O)O)ccc12 [Allura Red] | ≤0.01 | > 13.3 | –
Nc1ccc(N=Nc2ccc(CC(=O)O)cc2)c(N)c1 [Hapten2, 2-(4-((2,4-Diaminophenyl)diazenyl)phenyl)acetic acid] | 127.0 | – | IC50 [1]: 0.00105 µM; Cross-reactivity ([1]; listed as Hapten 2): 127%
O=C(O)C1=NN(c2ccc(S(=O)(=O)O)cc2)C(=O)C1/N=N/c1ccc(S(=O)(=O)O)cc1 (centres unmarked) [Tartrazine] | ≤0.01 | > 13.3 | –
Acid Red 94 | ≤0.01 | > 13.3 | –
O=C1OC2(c3ccc(Cl)cc3Oc3cc(Cl)ccc32)c2ccccc21 [Reddish orange] | ≤0.01 | > 13.3 | –
Nc1ccc(/N=N/c2ccccc2)c(N)c1 [Chrysoidine] | 100.0 | – | IC50 [2]: 10.6 ng/mL (≈ 0.0499 µM); LOD (10% inhibitory concentration) [2]: 3.8 ng/mL; IC50 (50% inhibitory concentration) [1, 4]: 0.33 ng/mL (≈ 0.00155 µM); LOD (10% inhibitory concentration) [1, 4]: 0.04 ng/mL; LOD (10% inhibitory concentration) ([1]; coating antigen Hapten 1-OVA 20 ng/mL, Ab 2 dilution 4000 (heterologous), listed as chrysoidine): ≤ 0.04 ng/mL; limit of quantitation (LOQ, 20%-80% inhibitory concentration) ([1]; coating antigen Hapten 1-OVA, Ab 2 (heterologous)): 0.09 to 4.9 ng/mL; IC50 [1]: 0.00133 µM; IC50 [3, 5]: 7.4 ng/mL (≈ 0.0349 µM); LOD (10% inhibitory concentration) [3, 5]: 0.8 ng/mL; IC50 [3, 6]: 1.6 ng/mL (≈ 0.00754 µM); LOD (10% inhibitory concentration) [3, 6]: 0.4 ng/mL
CN(C)c1ccc(C(=N)c2ccc(N(C)C)cc2)cc1 [Auramine O] | 0.2 | – | IC50 [1]: 0.798 µM
O=S(=O)(O)c1ccc2c(/N=N/c3ccc(S(=O)(=O)O)c4ccccc34)c(O)c(S(=O)(=O)O)cc2c1 [Amaranth] | ≤0.01 | > 13.3 | –
Nc1nc(N)nc(N)n1 [Melamine] | ≤0.01 | > 13.3 | –
O=S(=O)(O)c1ccc(/N=N/c2ccc(O)c3ccccc23)cc1 [Orangeim] | 0.1 | – | IC50 [1]: 1.12 µM; Cross-reactivity ([1]; listed as orangeim): 0.12%
O=C1OC2(c3ccccc31)c1cc(I)c(O)c(I)c1Oc1c2cc(I)c(O)c1I [Erythrosine] | ≤0.01 | > 13.3 | –
Nc1ccc(N=Nc2ccc(C(=O)O)cc2)c(N)c1 [Hapten1, 4-((2,4-Diaminophenyl)diazenyl)benzoic acid] | 169.8 | – | IC50 [1]: 0.00078 µM; Cross-reactivity ([1]; listed as Hapten 1): 170%
O=C(O)C1=NN(c2ccc(S(=O)(=O)O)cc2)C(=O)C1/N=N/c1ccc(S(=O)(=O)O)cc1 (centres unmarked) [Acid Yellow 23] | 0.04 | – | IC50 [1]: 3.05 µM
O=S(=O)(O)c1ccc(/N=N/c2cc(S(=O)(=O)O)c3ccccc3c2O)c2ccccc12 [Azorubine] | ≤0.01 | > 13.3 | –
